Experiment [1] concerns the target T1, MDH (Sus scrofa, UniProt P00346).
T1 construct: purchased Sigma-Aldrich (St. Louis, MO, USA)
T1 sequence (P00346 25-338): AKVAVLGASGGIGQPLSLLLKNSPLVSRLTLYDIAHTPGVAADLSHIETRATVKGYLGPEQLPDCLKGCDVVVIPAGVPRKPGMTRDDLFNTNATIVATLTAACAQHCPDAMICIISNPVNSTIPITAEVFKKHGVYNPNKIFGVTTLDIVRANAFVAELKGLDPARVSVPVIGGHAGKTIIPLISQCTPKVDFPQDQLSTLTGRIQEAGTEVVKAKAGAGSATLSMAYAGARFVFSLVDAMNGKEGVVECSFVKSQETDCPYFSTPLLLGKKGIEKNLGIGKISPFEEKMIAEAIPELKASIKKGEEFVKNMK
As to the kind of experiment: FRET-Probe isothermal chemical denaturation (ICD) assay, MDH. The class given is binding. The settings on record: 25 nM MDH. The procedure:
(§1) All isothermal chemical denaturation (ICD) assays were conducted in triplicates at RT using a single-step protocol with 25 µL final volume. Sample protein and ligand were added in 5 µL in a buffer (10 mM HEPES (pH 7.5), 10 mM NaCl, (v/v) 0.01% Brij 30) without denaturant. FRET-Probe (0.5 nM) was added to the assay buffer supplemented with chemical denaturant, urea (0–5 M), ethanol (0–30%) or 1-propanol (0–50%). Additionally, 0.2 mM EDTA was used in combination with alcohols.
(§2) In all ICD protein assays, time-resolved Förster resonance energy transfer (TR-FRET) signal was monitored kinetically at multiple time points during 150 min incubation. In all assays with protein binding ligands, 30 min preincubation prior denaturant addition was performed. In acid induced denaturation assay, GTP (0–2 µM) and NADH (0–50 µM) were titrated with KRAS^G12V and MDH, respectively. 1-propanol (30–50%) ICD assays were also performed for MDH in the presence of NADH (0–50 µM) and (20%) for KRAS^G12V using GTP (0–10 µM). […] Additionally, urea was tested with 1 µM GTP with KRAS^G12V.

In experiment [2] the target is T2, malate dehydrogenase (MDH) (Sus scrofa, UniProt P00346).
T2 construct: purchased Sigma-Aldrich (St. Louis, MO, USA)
T2 sequence (P00346 25-338): T1 sequence (P00346 25-338)
As to the kind of experiment: FRET-Probe thermal shift assay (TSA), MDH with NADH. The class given is binding. As to conditions: for Tm of MDH with NADH: 25 nM MDH. The procedure:
All FRET-Probe TSA were conducted in triplicates using a single-step protocol, by adding the sample protein in 5 µL and FRET-Probe (0.5 nM) in 20 µL volumes. All concentrations are reported in a 25 µL final volume. Assays were performed in an assay buffer containing 10 mM HEPES (pH 7.5) supplemented with 0.001% (v/v) Triton X-100.

Experiment [3] addresses MDH. On the set-up: method as in PMID 225321. As to conditions: MDH/NADH interaction; cited from earlier work.
Experiment [4] addresses T3, KRAS^G12V (Homo sapiens, UniProt P01116, G12V).
T3 construct: Monomer (2-188); host or cells: E. coli
As to the kind of experiment: FRET-Probe isothermal chemical denaturation (ICD) assay, KRAS^G12V. In kind it is binding. As to conditions: for S/B ratio, denaturation with and without GTP: 1 µM GTP. As to the method: as §1, §2

“Also recorded” adds a separate entry of the source.

As a reminder, the EC50 is the midpoint of the concentration-response curve. The term Kd denotes a measure of binding affinity in units of concentration. As for `NC(=O)C1=CN([C@@H]2O[C@H](COP(=O)(O)OP(=O)(O)OC[C@H]3O[C@@H](n4cnc5c(N)ncnc54)[C@H](O)[C@@H]3O)[C@@H](O)[C@H]2O)C=CC1` [NADH, reduced nicotinamide adenine dinucleotide], the EC50 is 29000 to 38000 nM in experiment [1] (30–50% 1-propanol, 60 min incubation) and 4700 ± 800 nM in experiment [1] (pH 5 denaturation buffer, RT, 90 min incubation). In experiment [1] (pH 5, 5 and 50 µM NADH, RT), the “ligand-induced stabilization of MDH” value is given as “clear ligand-induced stabilization”. The entries for the “Tm of MDH with NADH” value in experiment [2] (5 µM NADH) and in experiment [2] (50 µM NADH) were 47.9 ± 0.6 °C and 51.7 ± 0.2 °C, respectively. For the same compound, the results for the “Δ Tm of MDH” value in experiment [2] (5 µM NADH) and in experiment [2] (50 µM NADH) were 1.2 °C and 5.0 °C, respectively. In experiment [3], the Kd is 3800 nM.

Turning to `Nc1nc2c(ncn2[C@@H]2O[C@H](COP(=O)(O)OP(=O)(O)OP(=O)(O)O)[C@@H](O)[C@H]2O)c(=O)[nH]1` [GTP, guanosine-5'-triphosphate], the “S/B ratio, denaturation with and without GTP” value is 15.1 in experiment [4] (50 nM KRAS^G12V, 1 M urea, 60 min) and 20.3 in experiment [4] (50 nM KRAS^G12V, 2 M urea, 60 min). In addition, the EC50 is 4.5 ± 1.9 nM in experiment [4] (50 nM KRAS^G12V, pH 5 denaturation buffer, 30 min); 2.6 ± 0.7 nM in experiment [4] (50 nM KRAS^G12V, pH 5 denaturation buffer, 60 min); 3.5 ± 0.1 nM in experiment [4] (50 nM KRAS^G12V, pH 5 denaturation buffer, 90 min); 4.6 ± 0.3 nM in experiment [4] (50 nM KRAS^G12V, pH 5 denaturation buffer, 120 min); 3.6 ± 0.5 nM in experiment [4] (KRAS^G12V, 20% 1-propanol, 30 min); 3.8 ± 0.4 nM in experiment [4] (KRAS^G12V, 20% 1-propanol, 60 min). The EC50 in experiment [4] (KRAS^G12V, 20% 1-propanol, 90 min) worked out at 5.2 ± 1.2 nM; in experiment [4] (KRAS^G12V, 20% 1-propanol, 120 min), 5.2 ± 0.7 nM.

Consider `Nc1ncnc2c1ncn2[C@@H]1O[C@H](COP(=O)(O)OP(=O)(O)OP(=O)(O)O)[C@@H](O)[C@H]1O` [ATP], for which the “TR-FRET signal level compared with protein alone” value in experiment [4] (50 nM KRAS^G12V, pH 5, 2 and 10 µM ATP) is listed as “no change of signal level; also recorded: in the same range”.

Values taken from paper PMC10654576, “Isothermal chemical denaturation assay for monitoring protein stability and inhibitor interactions” (Scientific Reports, 2023).
